Calls of active or inactive are those of the source. For most assays here, no stated cut-off is given here; in the data, actives have a measured Kd and inactives only a lower limit.
Key:
[1] = molecular target: MAP kinase-activated protein kinase 2 (Homo sapiens, UniProt P49137)
[2] = molecular target: T1, Very long-chain specific acyl-CoA dehydrogenase, mitochondrial (Homo sapiens, UniProt P49748)
T1 sequence (P49748 whole entry): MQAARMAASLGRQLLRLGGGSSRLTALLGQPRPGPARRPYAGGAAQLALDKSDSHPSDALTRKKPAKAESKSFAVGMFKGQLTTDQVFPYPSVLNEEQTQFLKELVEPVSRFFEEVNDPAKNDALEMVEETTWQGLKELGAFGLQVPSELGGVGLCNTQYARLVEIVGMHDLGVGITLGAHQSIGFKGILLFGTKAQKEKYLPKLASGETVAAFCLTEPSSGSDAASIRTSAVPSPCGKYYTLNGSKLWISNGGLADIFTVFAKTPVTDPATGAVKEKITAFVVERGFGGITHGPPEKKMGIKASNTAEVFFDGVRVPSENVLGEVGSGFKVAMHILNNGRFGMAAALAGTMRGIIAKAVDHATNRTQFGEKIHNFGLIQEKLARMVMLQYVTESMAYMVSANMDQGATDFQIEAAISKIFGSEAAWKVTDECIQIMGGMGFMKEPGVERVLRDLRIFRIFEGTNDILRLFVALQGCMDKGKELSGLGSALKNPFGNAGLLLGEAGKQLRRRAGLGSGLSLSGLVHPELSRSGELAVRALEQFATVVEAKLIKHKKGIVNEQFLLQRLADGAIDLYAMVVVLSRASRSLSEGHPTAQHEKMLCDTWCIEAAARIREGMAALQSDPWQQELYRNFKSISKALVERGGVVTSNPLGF

[3] = molecular target: T2, Phosphorylase b kinase gamma catalytic chain, liver/testis isoform (Homo sapiens, UniProt P15735)
T2 sequence (P15735 whole entry): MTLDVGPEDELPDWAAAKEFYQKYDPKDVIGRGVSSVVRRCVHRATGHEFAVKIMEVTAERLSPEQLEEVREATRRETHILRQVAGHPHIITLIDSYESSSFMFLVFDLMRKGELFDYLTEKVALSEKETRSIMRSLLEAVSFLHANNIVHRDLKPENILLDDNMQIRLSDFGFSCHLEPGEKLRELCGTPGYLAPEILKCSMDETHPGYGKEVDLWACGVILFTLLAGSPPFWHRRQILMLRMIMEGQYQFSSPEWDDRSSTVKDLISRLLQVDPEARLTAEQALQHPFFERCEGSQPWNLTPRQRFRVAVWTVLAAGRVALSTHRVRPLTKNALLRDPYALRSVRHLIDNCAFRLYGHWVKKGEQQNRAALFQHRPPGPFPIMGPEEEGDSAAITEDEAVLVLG

[4] = molecular target: T3, Peroxisomal acyl-coenzyme A oxidase 1 (Homo sapiens, UniProt Q15067)
T3 sequence (Q15067 whole entry): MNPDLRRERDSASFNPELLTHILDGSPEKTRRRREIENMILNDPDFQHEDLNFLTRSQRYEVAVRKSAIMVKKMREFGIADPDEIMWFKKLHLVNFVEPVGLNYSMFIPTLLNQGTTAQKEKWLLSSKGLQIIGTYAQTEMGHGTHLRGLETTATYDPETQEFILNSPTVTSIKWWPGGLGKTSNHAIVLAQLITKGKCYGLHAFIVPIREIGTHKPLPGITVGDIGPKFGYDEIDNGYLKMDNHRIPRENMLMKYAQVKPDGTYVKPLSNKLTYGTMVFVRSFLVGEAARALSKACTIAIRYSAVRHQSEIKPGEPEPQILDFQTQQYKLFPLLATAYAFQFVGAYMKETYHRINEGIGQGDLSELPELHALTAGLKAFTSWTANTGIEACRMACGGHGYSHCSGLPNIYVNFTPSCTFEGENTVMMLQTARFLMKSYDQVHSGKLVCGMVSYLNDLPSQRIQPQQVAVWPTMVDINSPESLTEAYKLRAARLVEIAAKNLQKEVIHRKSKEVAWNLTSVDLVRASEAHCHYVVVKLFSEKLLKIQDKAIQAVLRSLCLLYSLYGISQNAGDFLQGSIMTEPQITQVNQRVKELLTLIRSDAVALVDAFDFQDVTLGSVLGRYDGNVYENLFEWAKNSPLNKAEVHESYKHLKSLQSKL

[5] = molecular target: Mitogen-activated protein kinase kinase kinase kinase 5 (Homo sapiens, UniProt Q9Y4K4)
Mitogen-activated protein kinase kinase kinase kinase 5, sequence (Q9Y4K4 whole entry, the tested form may be a part): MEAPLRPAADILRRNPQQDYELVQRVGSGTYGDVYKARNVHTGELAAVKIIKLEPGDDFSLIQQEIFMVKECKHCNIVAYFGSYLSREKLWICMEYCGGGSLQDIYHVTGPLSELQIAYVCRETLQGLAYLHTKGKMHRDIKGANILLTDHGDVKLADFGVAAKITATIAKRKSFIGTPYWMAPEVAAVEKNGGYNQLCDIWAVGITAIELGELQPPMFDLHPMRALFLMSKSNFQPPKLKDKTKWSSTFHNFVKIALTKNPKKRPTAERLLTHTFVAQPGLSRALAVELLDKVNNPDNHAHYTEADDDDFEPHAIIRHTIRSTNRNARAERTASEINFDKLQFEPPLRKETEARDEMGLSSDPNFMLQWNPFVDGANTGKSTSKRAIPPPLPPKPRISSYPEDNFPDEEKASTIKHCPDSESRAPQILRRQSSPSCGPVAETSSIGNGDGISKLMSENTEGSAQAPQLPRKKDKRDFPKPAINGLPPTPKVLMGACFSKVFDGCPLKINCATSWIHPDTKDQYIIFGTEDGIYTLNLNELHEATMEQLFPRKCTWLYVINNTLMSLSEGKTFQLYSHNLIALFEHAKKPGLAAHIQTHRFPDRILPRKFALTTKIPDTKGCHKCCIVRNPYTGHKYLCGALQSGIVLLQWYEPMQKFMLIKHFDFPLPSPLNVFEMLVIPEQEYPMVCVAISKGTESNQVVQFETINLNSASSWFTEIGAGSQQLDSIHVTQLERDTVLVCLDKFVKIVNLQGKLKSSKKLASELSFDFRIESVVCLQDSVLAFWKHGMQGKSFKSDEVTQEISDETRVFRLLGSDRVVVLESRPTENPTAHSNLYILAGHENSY

[6] = molecular target: Epithelial discoidin domain-containing receptor 1 (Homo sapiens, UniProt Q08345)
Epithelial discoidin domain-containing receptor 1, sequence (Q08345 whole entry, the tested form may be a part): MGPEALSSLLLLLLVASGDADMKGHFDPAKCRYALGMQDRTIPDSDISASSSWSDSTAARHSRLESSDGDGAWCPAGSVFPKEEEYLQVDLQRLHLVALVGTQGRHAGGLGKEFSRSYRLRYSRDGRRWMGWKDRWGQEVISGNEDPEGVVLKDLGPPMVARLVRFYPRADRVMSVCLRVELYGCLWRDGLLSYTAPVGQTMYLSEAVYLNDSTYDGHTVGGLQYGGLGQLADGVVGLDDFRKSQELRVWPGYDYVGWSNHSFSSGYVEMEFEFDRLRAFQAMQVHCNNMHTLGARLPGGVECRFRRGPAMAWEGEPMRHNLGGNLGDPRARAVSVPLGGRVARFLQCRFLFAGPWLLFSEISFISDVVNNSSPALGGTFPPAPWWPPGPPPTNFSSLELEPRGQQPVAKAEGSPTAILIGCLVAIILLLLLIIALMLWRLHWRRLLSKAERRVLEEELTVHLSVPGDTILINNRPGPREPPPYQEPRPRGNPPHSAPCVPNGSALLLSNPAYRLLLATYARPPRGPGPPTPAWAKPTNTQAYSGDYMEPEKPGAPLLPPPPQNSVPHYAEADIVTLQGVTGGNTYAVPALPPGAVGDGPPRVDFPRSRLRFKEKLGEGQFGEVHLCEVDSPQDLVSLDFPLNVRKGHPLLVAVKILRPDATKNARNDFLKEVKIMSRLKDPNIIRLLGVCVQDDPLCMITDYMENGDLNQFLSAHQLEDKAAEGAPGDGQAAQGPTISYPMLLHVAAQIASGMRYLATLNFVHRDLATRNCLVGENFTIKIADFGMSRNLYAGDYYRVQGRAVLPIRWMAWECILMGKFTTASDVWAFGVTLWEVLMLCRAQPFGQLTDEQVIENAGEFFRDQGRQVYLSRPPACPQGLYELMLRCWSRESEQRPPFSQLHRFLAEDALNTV

[7] = molecular target: T4, Serine/threonine-protein kinase ICK (Homo sapiens, UniProt Q9UPZ9)
T4 sequence (Q9UPZ9 whole entry): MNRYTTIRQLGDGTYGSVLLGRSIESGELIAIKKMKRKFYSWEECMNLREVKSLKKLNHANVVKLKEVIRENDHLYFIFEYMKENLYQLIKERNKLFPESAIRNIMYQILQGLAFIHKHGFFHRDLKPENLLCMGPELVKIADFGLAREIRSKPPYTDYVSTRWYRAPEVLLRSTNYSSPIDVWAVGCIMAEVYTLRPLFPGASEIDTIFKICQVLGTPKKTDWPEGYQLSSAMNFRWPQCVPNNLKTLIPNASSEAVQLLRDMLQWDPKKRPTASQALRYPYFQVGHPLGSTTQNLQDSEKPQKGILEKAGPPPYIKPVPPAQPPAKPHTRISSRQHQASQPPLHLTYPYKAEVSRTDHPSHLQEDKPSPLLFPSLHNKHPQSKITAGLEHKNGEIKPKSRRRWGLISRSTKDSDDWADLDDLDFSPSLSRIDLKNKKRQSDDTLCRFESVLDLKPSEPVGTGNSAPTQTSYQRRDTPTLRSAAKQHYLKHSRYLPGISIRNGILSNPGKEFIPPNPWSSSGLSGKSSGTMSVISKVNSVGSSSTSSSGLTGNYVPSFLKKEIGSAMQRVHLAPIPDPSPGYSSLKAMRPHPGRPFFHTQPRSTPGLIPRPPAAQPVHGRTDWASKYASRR

Deoxycytidine kinase = Deoxycytidine kinase (Homo sapiens, UniProt P27707)
Deoxycytidine kinase, sequence (P27707 whole entry): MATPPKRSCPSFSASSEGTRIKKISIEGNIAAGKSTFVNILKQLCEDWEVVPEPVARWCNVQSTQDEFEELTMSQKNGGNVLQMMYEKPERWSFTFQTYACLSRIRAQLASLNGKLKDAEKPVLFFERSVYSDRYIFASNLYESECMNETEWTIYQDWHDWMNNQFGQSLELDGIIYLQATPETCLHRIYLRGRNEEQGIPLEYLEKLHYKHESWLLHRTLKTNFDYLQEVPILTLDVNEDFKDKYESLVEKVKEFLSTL

MAP kinase-activated protein kinase 2, sequence (P49137 whole entry): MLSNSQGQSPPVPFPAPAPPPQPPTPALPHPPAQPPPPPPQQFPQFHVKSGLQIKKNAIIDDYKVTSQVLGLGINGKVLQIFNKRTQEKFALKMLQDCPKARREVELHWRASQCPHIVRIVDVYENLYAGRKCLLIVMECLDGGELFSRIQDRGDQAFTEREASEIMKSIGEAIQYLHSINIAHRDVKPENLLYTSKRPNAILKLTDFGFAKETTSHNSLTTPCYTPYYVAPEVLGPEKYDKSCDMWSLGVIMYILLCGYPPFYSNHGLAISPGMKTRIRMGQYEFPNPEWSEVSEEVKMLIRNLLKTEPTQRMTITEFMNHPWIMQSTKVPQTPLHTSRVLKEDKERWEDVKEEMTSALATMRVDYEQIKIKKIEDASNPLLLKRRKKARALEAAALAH

SMILES	Kd [1]	Kd [2]	Kd [3]	Kd [4]	Kd [5]	Kd [6]	Kd [7]	Kd (Deoxycytidine kinase)
C=CC(=O)Nc1cc(Nc2nccc(-c3cn(C)c4ccccc34)n2)c(OC)cc1N(C)CCN(C)C [OSIMERTINIB]	> 30 µM (inactive)	> 30 µM (inactive)	> 30 µM (inactive)	> 30 µM (inactive)	> 30 µM (inactive)	> 30 µM (inactive)	> 30 µM (inactive)	> 30 µM (inactive)
Cc1c(Cn2c(C)nc3c(C(=O)O)cc(N4CCOCC4)cc32)cccc1C(F)(F)F [GSK-2636771]	> 30 µM (inactive)	> 30 µM (inactive)	> 30 µM (inactive)	> 30 µM (inactive)	> 30 µM (inactive)	> 30 µM (inactive)	> 30 µM (inactive)	> 30 µM (inactive)
CCN(CCCOc1ccc2c(Nc3cc(CC(=O)Nc4cccc(F)c4)n[nH]3)ncnc2c1)CCOP(=O)(O)O [BARASERTIB]	> 30 µM (inactive)	> 30 µM (inactive)	> 30 µM (inactive)	> 30 µM (inactive)	2.24 µM (active)	> 30 µM (inactive)	> 30 µM (inactive)	> 30 µM (inactive)
COc1cc2ncnc(Nc3ccc(F)c(Cl)c3)c2cc1NC(=O)/C=C/CN1CCCCC1 [DACOMITINIB ANHYDROUS]	> 30 µM (inactive)	> 30 µM (inactive)	> 30 µM (inactive)	> 30 µM (inactive)	> 30 µM (inactive)	> 30 µM (inactive)	> 30 µM (inactive)	> 30 µM (inactive)
COc1ccc2c(OCc3nnc4ccc(-c5ccccc5)nn34)ccnc2c1 [AMG-208]	> 30 µM (inactive)	> 30 µM (inactive)	> 30 µM (inactive)	> 30 µM (inactive)	> 30 µM (inactive)	> 30 µM (inactive)	> 30 µM (inactive)	> 30 µM (inactive)

The remaining lines, values ahead:

Kd [1]	Kd [2]	Kd [3]	Kd [4]	Kd [5]	Kd [6]	Kd [7]	Kd (Deoxycytidine kinase)	SMILES
> 30 µM (inactive)	> 30 µM (inactive)	> 30 µM (inactive)	> 30 µM (inactive)	> 30 µM (inactive)	> 30 µM (inactive)	> 30 µM (inactive)	> 30 µM (inactive)	CC(C)(O)CC(=O)NCCn1ccc2ncnc(Nc3ccc(Oc4cccc(C(F)(F)F)c4)c(Cl)c3)c21 [TAK-285]
> 30 µM (inactive)	> 30 µM (inactive)	> 30 µM (inactive)	> 30 µM (inactive)	> 30 µM (inactive)	> 30 µM (inactive)	> 30 µM (inactive)	> 30 µM (inactive)	COc1cc2ncnc3c2cc1OCCCCCN(C)Cc1ccc(Br)cc1N3 [JNJ-26483327]
> 30 µM (inactive)	> 30 µM (inactive)	> 30 µM (inactive)	> 30 µM (inactive)	> 30 µM (inactive)	> 30 µM (inactive)	> 30 µM (inactive)	> 30 µM (inactive)	O=C(Nc1ccc(OC(F)(F)F)cc1)c1sccc1NCc1ccnc2ccccc12 [OSI-930]
> 30 µM (inactive)	> 30 µM (inactive)	> 30 µM (inactive)	> 30 µM (inactive)	> 30 µM (inactive)	> 30 µM (inactive)	> 30 µM (inactive)	> 30 µM (inactive)	C#Cc1cccc(Nc2ncnc3cc4c(cc23)OCCOCCOCCO4)c1 [ICOTINIB]

— ChEMBL document CHEMBL3991601, “The target landscape of clinical kinase drugs” (Science, 2017)
